Test results taken from paper PMC9574929, “Development of Hydrogen Sulfide-Releasing Carbonic Anhydrases IX- and XII-Selective Inhibitors with Enhanced Antihyperalgesic Action in a Rat Model of Arthritis” (Journal of Medicinal Chemistry, 2022).
Several values for one entry are separate records, joined by “and”; a condition that tells them apart may be missing. Identical values can stand only once. Entries after “also recorded” stand apart in the source; their conditions may differ.

Columns and labels:
hCA IX = hCA IX (Homo sapiens, UniProt Q16790); experiment: Stopped-flow CO2 hydrase assay, hCA IX; conditions: selectivity index, ratio of KIs
Protocol: (§3) The uncatalyzed rates were determined in the same manner and subtracted from the total observed rates. Stock solutions of inhibitor (0.1 mM) were prepared in distilled-deionized water and dilutions up to 0.01 nM were done thereafter with the assay buffer. […] The inhibition constants were obtained by nonlinear least-squares methods using PRISM 3 and the Cheng–Prusoff equation, as reported earlier,[39] and represent the mean from at least three different determinations.

rats = experiment: Toxicity and Irwin test; type: in vivo, rat; design: key to Irwin test: Spontaneous activity / Irwin test: Straightening reflex / Irwin test: Hypo-hyperthermia / Irwin test: Cleaning / Irwin test: Curiosity / Irwin test: Reactivity / Irwin test: Convulsions: observer's semiquantitative score (0 to +4, −4 to 0, or −4 to +4); conditions: 30 mg/kg; for Irwin test: Cyanosis / Irwin test: Exolphthalmos / Irwin test: Flush / Irwin test: Lacrimation / Irwin test: Pallor / Irwin test: Piloerection / Irwin test: Salivation / Irwin test: Writhing / Irwin test: Palpebral opening / Irwin test: Hypo-hyperthermia: Autonomic signes; for Irwin test: Cyanosis / Irwin test: Exolphthalmos / Irwin test: Flush / Irwin test: Lacrimation / Irwin test: Pallor / Irwin test: Piloerection / Irwin test: Salivation / Irwin test: Writhing / Irwin test: Passivity / Irwin test: Vocalization / Irwin test: Ataxia / Irwin test: Stereotipies / Irwin test: Straub tail / Irwin test: Tremors / Irwin test: Delayed death (48 h) / Irwin test: Immediate death: limits 0 - 4; for Irwin test: Palpebral opening / Irwin test: Cleaning / Irwin test: Curiosity / Irwin test: Reactivity / Irwin test: Spontaneous activity / Irwin test: Straightening reflex / Irwin test: Palpebral reflex / Irwin test: Convulsions: limits 4 - 0; for Irwin test: Hypo-hyperthermia: limits -4/+4; for Irwin test: Passivity / Irwin test: Vocalization / Irwin test: Cleaning / Irwin test: Curiosity / Irwin test: Reactivity / Irwin test: Spontaneous activity: Behaviour; for Irwin test: Ataxia / Irwin test: Stereotipies / Irwin test: Straightening reflex: Movement; for Irwin test: Physical strenght: Muscolar tone, limits 4 – 0; for Irwin test: Palpebral reflex: Reflexes; for Irwin test: Straub tail / Irwin test: Tremors / Irwin test: Convulsions: S.N.C. excitement; for Irwin test: Delayed death (48 h) / Irwin test: Immediate death: Toxicity
Protocol: Toxicity was evaluated after a single acute administration of 26, 29, 30, and 31 at 30 mg/kg. […] For the Irwin test, each rat was individually placed in a transparent cage (26 × 41 cm), and 26 neurobehavioral or physiological parameters were systematically assessed according to Irwin (1968)[55] and already reported by Berrino and colleagues in similar studies.[30] Behavioral, autonomic, and neurological manifestations produced by compound administration in rats were evaluated: motor displacement, motor reflexes, stereotypies, grooming, reaction to painful or environmental stimuli (analgesia and irritability), startle response, secretions, excretions, respiratory movements, skin color and temperature, piloerection, exophthalmos, eyelid and corneal reflexes, muscle tone, ataxia, tremors, head twitches, jumps, convulsions, Straub tail, and other signs or symptoms. For postural reflexes (righting reflex) and other signs such as piloerection, exophthalmia (exaggerated protrusion of the eyeball), ataxia, tremors, and Straub tail, only presence or absence was recorded. Skin color was evaluated qualitatively (pale, red, or purple); other signs were evaluated semiquantitatively, according to the observer’s personal scale (0 to +4, −4 to 0, or −4 to +4). The terms sedation and excitation express the final interpretation of a group of signs: reduced motor activity, reduced startle response, eyelid ptosis, and reduced response to manual manipulation, for the former; and increased motor activity, increased startle response, increased response to manual manipulation, and exophthalmia, for the latter. Hyperactivity includes running, jumping, and attempting to escape from the container. Trained observers were not informed about the specific treatment of each animal group carried out in this test.

hCA XII = hCA XII (Homo sapiens, UniProt O43570); experiment: Stopped-flow CO2 hydrase assay, hCA XII; conditions: selectivity index, ratio of KIs
Sequence of hCA XII (O43570 25-354): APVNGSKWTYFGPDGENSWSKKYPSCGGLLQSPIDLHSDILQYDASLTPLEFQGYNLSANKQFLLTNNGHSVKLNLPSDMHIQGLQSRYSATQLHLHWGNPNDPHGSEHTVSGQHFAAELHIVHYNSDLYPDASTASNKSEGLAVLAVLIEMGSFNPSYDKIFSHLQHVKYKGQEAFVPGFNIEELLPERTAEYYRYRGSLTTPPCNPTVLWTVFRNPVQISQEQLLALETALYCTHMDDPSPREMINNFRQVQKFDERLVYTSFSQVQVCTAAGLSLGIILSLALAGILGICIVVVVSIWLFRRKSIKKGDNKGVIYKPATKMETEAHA
Protocol: as §3

[1] = system: rat model of arthritis induced by the intra-articular injection of complete Freund's adjuvant (CFA); experiment: Incapacitance test, CFA-induced arthritis; type: in vivo; conditions: for reduction of spontaneous pain, Incapacitance test: single per os, 1 to 30 mg/kg, day 14 after CFA
Protocol: (§1) Articular damage was induced by injection of Complete Freund’s Adjuvant (CFA; Sigma-Aldrich, St Louis, MO, USA), containing 1 mg/mL of heat-killed and dried Mycobacterium tuberculosis in paraffin oil and mannide monooleate, into the tibiotarsal joint.[50] Briefly, the rats were lightly anesthetized with 2% isoflurane, the left leg skin was sterilized with 75% ethyl alcohol, and the lateral malleolus was located by palpation. A 28-gauge needle was then inserted vertically to penetrate the skin and turned distally for insertion into the articular cavity at the gap between the tibiofibular and tarsal bone until a distinct loss of resistance was felt. A volume of 50 μL of CFA was then injected (day 0). Control rats received 50 μL of saline solution (day 0) in the tibiotarsal joint.
(§2) The hybrid derivatives 26, 29, 30, and 31 (1, 10, and 30 mg/kg) were suspended in a 1% solution of carboxymethylcellulose (CMC) sodium salt and acutely per os administered starting from day 14 after CFA i.a. injection, when arthritis was well established. The H2S releaser 3 and CAI 15 were also administered alone or in coadministration at the equimolar dose of compound 30 30 mg/kg (13.23 and 17.71 mg/kg, respectively). The antihypersensitivity effects were evaluated over time by the Paw pressure and Incapacitance tests.
Weight-bearing changes were measured using an incapacitance apparatus (Linton Instrumentation, Norfolk, U.K.) to detect changes in postural equilibrium after a hind limb injury.[53],[54] Rats were trained to stand on their hind paws in a box with an inclined plane (65° from horizontal). This box was placed above the incapacitance apparatus. This allowed us to independently measure the weight that the animal applied on each hind limb. The value reported for each animal is the mean of five consecutive measurements. In the absence of hind limb injury, rats applied an equal weight on both hind limbs, indicating postural equilibrium, whereas an unequal distribution of weight on the hind limbs indicated a monolateral decreased pain threshold. Data are expressed as the difference between the weight applied to the limb contralateral to the injury and the weight applied to the ipsilateral limb (Δ weight).

[2] = system: rat model of arthritis induced by the intra-articular injection of complete Freund's adjuvant (CFA); experiment: Paw pressure test, CFA-induced arthritis; type: in vivo; conditions: for antihyperalgesic effect, Paw pressure test, 1 mg/kg: 1 mg/kg per os; for weight tolerated on the ipsilateral paw, Paw pressure test, 10 and 30 mg/kg: 10 and 30 mg/kg per os, from 15 min up to 45 min after treatment, vs CFA-treated animals; for antihyperalgesic effect, Paw pressure test, 30 mg/kg: 30 mg/kg per os
Protocol: as §1, §2
The nociceptive threshold of rats was determined with an analgesimeter (Ugo Basile, Varese, Italy), according to the method described by Leighton et al.[51] and Maresca et al.,[52] (doi: 10.1111/jphp.12828). Briefly, a constantly increasing pressure was applied to a small area of the dorsal surface of the hind paw using a blunt conical probe by a mechanical device. Mechanical pressure was increased until vocalization or a withdrawal reflex occurred while rats were lightly restrained. Vocalization or withdrawal reflex thresholds were expressed in grams. […]

hCA IV = hCA IV (Homo sapiens, UniProt P22748); experiment: Stopped-flow CO2 hydrase assay, hCA IV; conditions: selectivity index, ratio of KIs
Sequence of hCA IV (P22748 19-312): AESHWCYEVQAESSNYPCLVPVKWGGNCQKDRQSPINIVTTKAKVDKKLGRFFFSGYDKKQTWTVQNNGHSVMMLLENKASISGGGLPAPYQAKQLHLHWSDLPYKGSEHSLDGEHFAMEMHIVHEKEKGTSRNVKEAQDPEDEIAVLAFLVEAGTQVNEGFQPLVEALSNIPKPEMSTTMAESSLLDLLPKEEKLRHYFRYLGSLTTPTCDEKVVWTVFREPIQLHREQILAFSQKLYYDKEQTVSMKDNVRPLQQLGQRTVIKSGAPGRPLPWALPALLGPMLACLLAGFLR
Protocol: as §3

| SMILES | SI CA I/IX (hCA IX) | Irwin test: Cyanosis (rats) | Irwin test: Exolphthalmos (rats) | Irwin test: Flush (rats) | Irwin test: Lacrimation (rats) | Irwin test: Pallor (rats) | Irwin test: Piloerection (rats) | Irwin test: Salivation (rats) | Irwin test: Writhing (rats) | Irwin test: Palpebral opening (rats) | Irwin test: Hypo-hyperthermia (rats) | Irwin test: Passivity (rats) | Irwin test: Vocalization (rats) | Irwin test: Cleaning (rats) | Irwin test: Curiosity (rats) | Irwin test: Reactivity (rats) | Irwin test: Spontaneous activity (rats) | Irwin test: Ataxia (rats) | Irwin test: Stereotipies (rats) | Irwin test: Straightening reflex (rats) | also measured |
| --- | --- | --- | --- | --- | --- | --- | --- | --- | --- | --- | --- | --- | --- | --- | --- | --- | --- | --- | --- | --- | --- |
| NS(=O)(=O)c1ccc(CCN(Cc2csc3ccccc23)C(=O)c2ccc(-c3cssc3=S)cc2)cc1 [Compound 31, N-(Benzo[b]thiophen-3-ylmethyl)-N-(4-sulfamoylphenethyl)-4-(3-thioxo-3H-1,2-dithiol-4-yl)benzamide] | >4167 | 0 | 0 | 0 | 0 | 0 | 0 | 0 | 0 | 4 | 0 | 0 | 0 | 0 | 4 | 4 | 4 | 0 | 0 | 4 | Irwin test: Physical strenght (rats): 4; Irwin test: Palpebral reflex (rats): 4; Irwin test: Straub tail (rats): 0; Irwin test: Tremors (rats): 0; Irwin test: Convulsions (rats): 0; Irwin test: Delayed death (48 h) (rats): 0; Irwin test: Immediate death (rats): 0; SI CA I/XII (hCA XII): >1204; SI CA II/XII (hCA XII): 299; reduction of spontaneous pain, Incapacitance test [1]: reduced spontaneous pain in a dose-dependent manner; antihyperalgesic effect, Paw pressure test, 1 mg/kg [2]: ineffective; weight tolerated on the ipsilateral paw, Paw pressure test, 10 and 30 mg/kg [2]: significantly increased the weight tolerated; SI CA I/IV (hCA IV): >208; SI CA II/IV (hCA IV): 52 and 51.7 |
| NS(=O)(=O)c1ccc(CCN(Cc2cccc3ccccc23)C(=O)c2ccc(-c3cssc3=S)cc2)cc1 [Compound 30, N-(Naphthalen-1-ylmethyl)-N-(4-sulfamoylphenethyl)-4-(3-thioxo-3H-1,2-dithiol-4-yl)benzamide] | >641 | 0 | 0 | 0 | 0 | 0 | 0 | 0 | 0 | 4 | 0 | 0 | 0 | 0 | 4 | 4 | 4 | 0 | 0 | 4 | SI CA II/IX (hCA IX): 286; Irwin test: Physical strenght (rats): 4; Irwin test: Palpebral reflex (rats): 4; Irwin test: Straub tail (rats): 0; Irwin test: Tremors (rats): 0; Irwin test: Convulsions (rats): 0; Irwin test: Delayed death (48 h) (rats): 0; Irwin test: Immediate death (rats): 0; SI CA I/XII (hCA XII): >1428; SI CA II/XII (hCA XII): 637; effect of the lowest dose, Incapacitance test ([1]; 1 mg/kg per os): ineffective; reduction of spontaneous pain, Incapacitance test [1]: slightly greater efficacy at 10 mg/kg in comparison to the dose of 30 mg/kg; antihyperalgesic effect, Paw pressure test, 1 mg/kg [2]: ineffective; antihyperalgesic effect, Paw pressure test, 30 mg/kg ([2]; day 14 after CFA): greater antihyperalgesic action with respect to 3, 15, and their co-administration; weight tolerated on the ipsilateral paw, Paw pressure test, 10 and 30 mg/kg [2]: significantly increased the weight tolerated; SI CA I/IV (hCA IV): >41.0; SI CA II/IV (hCA IV): 18.3 |
| COc1cc([N+](=O)[O-])ccc1CN(CCc1ccc(S(N)(=O)=O)cc1)C(=O)c1ccc(-c2cssc2=S)cc1 [Compound 26, N-(2-Methoxy-4-nitrobenzyl)-N-(4-sulfamoylphenethyl)-4-(3-thioxo-3H-1,2-dithiol-4-yl)benzamide] | 1633 | 0 | 0 | 0 | 0 | 0 | 0 | 0 | 0 | 4 | 0 | 0 | 0 | 0 | 4 | 4 | 4 | 0 | 0 | 4 | SI CA II/IX (hCA IX): 719; Irwin test: Physical strenght (rats): 4; Irwin test: Palpebral reflex (rats): 4; Irwin test: Straub tail (rats): 0; Irwin test: Tremors (rats): 0; Irwin test: Convulsions (rats): 0; Irwin test: Delayed death (48 h) (rats): 0; Irwin test: Immediate death (rats): 0; SI CA I/XII (hCA XII): 870; SI CA II/XII (hCA XII): 383; antihyperalgesic action at 45 min, Incapacitance test ([1]; per os, 45 min after treatment): almost completely reverting spontaneous pain after 45 min; also recorded: completely reverting pain 45 min after treatment; reduction of spontaneous pain, Incapacitance test [1]: reduced spontaneous pain in a dose-dependent manner; antihyperalgesic effect, Paw pressure test, 30 mg/kg ([2]; day 14 after CFA): completely reverted the pain state 45 min after administration; also recorded: counteracted the mechanical hyperalgesia 45 min after injection; also recorded: completely reverting pain 45 min after treatment; antihypersensitivity effect, Paw pressure test ([2]; single per os, 1 to 30 mg/kg, day 14 after CFA): evoked an antihypersensitivity effect in a dose-dependent manner; SI CA I/IV (hCA IV): 1.6; SI CA II/IV (hCA IV): 0.7 |
